The test system of data set [1] is MDA-MB-231 (MDA 231, human breast adenocarcinoma). Kind of data set: CCK-8 cell viability assay on MDA-MB-231 cells. In kind it is cell-based. As to the method:
(§1) The plate is incubated for 48 hours.
(§2) CCK-8 solution is added directly to the cells.

Data set [2] relates to HCT116 (human colon cancer). Kind of data set: CCK-8 cell viability assay on HCT116 cells. In kind it is cell-based. The settings on record: HCT-116, 48 h. Here is the method: as §1, §2
The next data set can be described thus: in vivo. To be noted: mouse, po, 10 mg/kg.
The nature of data set [3]: Pharmacokinetic properties in a mouse. To be noted: for Oral Bioavailability (% F): i.v. 2 mg/kg and oral 10 mg/kg; for AUC(0-inf): plasma, po, 10 mg/kg.
Experimental: (§3) Each compound was formulated and administered to a mouse. Blood was taken at specific time points (0.25 h, 0.5 h, 1 h, 2 h, 4 h, 8 h, and 24 h) and evaluated for the drug administered by LC/MS. Each compound was administered i.v. at 2 mg/kg and also evaluated by oral administration (gavage) at 10 mg/kg (Formulation: 5% DMSO+95% HP-β-CD (20%, W/V) yielding a solution). […] In addition, percent oral bioavailability or % F is a measure of the percent of the drug given orally that is in systemic circulation in the plasma.
Data set [4] has as its system pAkt (phosphorylated form of Akt). Kind of data set: Western blots on A549 cells after 72 hours. To be noted: western blot.
Experimental: The following kinases were examined: Akt, pAkt, Mek1, Mek2, Erk2, pErk2 and c-Myc. In addition, Induced myeloid leukemia cell differentiation protein (Mcl-1) was also evaluated.
[5] abbreviates: MDA-MB-231, 48 hours incubation, CCK-8, read-out: IC50 (uM, MDA 231).
Where [6] appears, read: HCT116, 48 hours incubation, CCK-8, read-out: IC50 (uM, HCT116).

Read-outs that look alike come from different tables or passages of the source.

Experimental for in vivo: as §3

With `O=C1C2=C(CCN(Cc3ccccc3)C2)N2CCN=C2N1Cc1ccc(OC(F)(F)F)cc1` [Compound 20], the IC50 came out at 0.82 µM in data set [1] (setting [5]) and 0.37 µM in data set [2] (setting [6]).
Taken in the same sequence, the figures for `C#Cc1ccc(CN2CCC3=C(C2)C(=O)N(Cc2ccc(Cl)cc2)C2=NCCN23)cc1` [Compound 22] were 3.4 µM and 1.8 µM.
The corresponding values for `O=C1C2=C(CCN(Cc3ccsc3)C2)N2CCN=C2N1Cc1ccc(Cl)cc1` [Compound 26] are 0.31 µM and 0.57 µM.
Take `O=C1C2=C(CCN(Cc3ccccc3)C2)N2CCN=C2N1Cc1ccccc1C(F)(F)F` [Compound 6]: the IC50 in data set [1] (setting [5]) is 1.2 µM; in data set [2] (setting [6]), 1.4 µM.
Consider `Cc1ccccc1CN1C(=O)C2=C(CCN(Cc3ccccc3Br)C2)N2CCN=C12` [Compound 10], for which the half-inhibitory concentration (IC50) in data set [1] (setting [5]) and in data set [2] (setting [6]) was over 25 µM throughout.
On to `O=C1C2=C(CCN(Cc3ccc(F)cc3)C2)N2CCN=C2N1Cc1ccc(Br)cc1` [Compound 23], for which the half-inhibitory concentration (IC50) in data set [1] (setting [5]) was 0.61 µM; in data set [2] (setting [6]) it was 0.36 µM.
Turning to `C#Cc1cccc(CN2CCC3=C(C2)C(=O)N(Cc2ccc(Br)cc2)C2=NCCN23)c1` [Compound 13], the IC50 in data set [1] (setting [5]) and in data set [2] (setting [6]) was 0.28 µM throughout.
On to `Cc1ccccc1CN1C(=O)C2=C(CCN(Cc3cccc(Br)c3)C2)N2CCN=C12` [Compound 11], for which the IC50 came out at 0.74 µM in data set [1] (setting [5]) and 0.72 µM in data set [2] (setting [6]).
Taken in the same sequence, the figures for `C#Cc1cccc(CN2CCC3=C(C2)C(=O)N(Cc2ccc(OC(F)(F)F)cc2)C2=NCCN23)c1` [Compound 8] were 0.88 µM and 1.8 µM.
In the case of `O=C1C2=C(CCN(Cc3cccc(OC(F)(F)F)c3)C2)N2CCN=C2N1Cc1ccc(C(F)(F)F)cc1` [Compound 21], the figures for the IC50 in data set [1] (setting [5]) and in data set [2] (setting [6]) were 0.27 µM and 0.37 µM, respectively.
As for `O=C1C2=C(CCN(Cc3cccc(C(F)(F)F)c3)C2)N2CCN=C2N1Cc1ccc(C(F)(F)F)cc1` [Compound 24], the half-maximal inhibitory concentration (IC50) in data set [1] (setting [5]) is 0.22 µM; in data set [2] (setting [6]) it was 0.087 µM.
For the compound `O=C1C2=C(CCN(Cc3cccc(F)c3)C2)N2CCN=C2N1Cc1ccc(Br)cc1` [Compound 17], the figures for the IC50 in data set [1] (setting [5]) and in data set [2] (setting [6]) were 0.064 µM and 0.023 µM, respectively.
As for `Cc1ccccc1CN1C(=O)C2=C(CCN(Cc3ccccc3)C2)N2CCN=C12` [TIC10, 11-benzyl-7-[(2-methylphenyl)methyl]-2,5,7,11-tetraazatricyclo[7.4.0.0^2,6]trideca-1 (9),5-dien-8-one, reference compound], the half-maximal inhibitory concentration (IC50) was 3 µM in data set [1] (MDA-MB-231, 48 h, read-out: IC50 (uM, MDA 231)) and 2.8 µM in data set [2] (read-out: IC50 (uM, HCT116)). For the same compound, in the data set “in vivo”, the AUC(0-inf) stood at 3.1 ng·h/mL. Further, the “Oral Bioavailability (% F)” value in data set [3] came out at 1.2 % F. The “concentration providing similar reductions in pAkt” value in data set [4] came out at 10 uM.
As to `O=C1C2=C(CCN(Cc3ccccc3)C2)N2CCN=C2N1Cc1cccc(C(F)(F)F)c1` [Compound 7], the values for the concentration for half-maximal inhibition (IC50) in data set [1] (setting [5]) and in data set [2] (setting [6]) were 0.4 µM and 0.24 µM, respectively.
For the compound `C#Cc1cccc(CN2CCC3=C(C2)C(=O)N(Cc2ccc(C(F)(F)F)cc2)C2=NCCN23)c1` [Compound 12], the IC50 in data set [1] (setting [5]) and in data set [2] (setting [6]) was 0.22 µM in each case.
`O=C1C2=C(CCN(Cc3ccccc3)C2)N2CCN=C2N1Cc1ccc(Cl)c(Cl)c1` [Compound 9]: the figures for the IC50 in data set [1] (setting [5]) and in data set [2] (setting [6]) were 0.12 µM and 0.08 µM, respectively.
Regarding `[2H]c1c([2H])c([2H])c(C([2H])([2H])N2CCC3=C(C2)C(=O)N(Cc2ccc(C(F)(F)F)cc2)C2=NCCN23)c([2H])c1[2H]` [Compound 19], in data set [3], the “Oral Bioavailability (% F)” value is 60 % F and the AUC(0-inf) turned out to be 604 ng·h/mL. For the same compound, the half-maximal inhibitory concentration (IC50) in data set [2] (setting [6]) is 0.089 µM.
With `O=C1C2=C(CCN(Cc3ccccc3)C2)N2CCN=C2N1Cc1ccc(C(F)(F)F)cc1` [Compound 2], the concentration for half-maximal inhibition (IC50) in data set [1] (setting [5]) is 0.05 µM; in data set [2] (setting [6]), 0.03 µM. Moreover, in data set [4], the “concentration providing similar reductions in pAkt” value stood at 0.037 uM.
On to `O=C1C2=C(CCN(Cc3cccs3)C2)N2CCN=C2N1Cc1ccc(Cl)cc1` [Compound 25], for which the half-maximal inhibitory concentration (IC50) in data set [1] (setting [5]) is 0.71 µM; in data set [2] (setting [6]), 1.7 µM.
The corresponding values for `Cc1cccc(CN2C(=O)C3=C(CCN(Cc4ccccc4)C3)N3C2=NC2CCCCC23)c1` (stereo not drawn) [Compound 5] are 0.069 µM and 1.3 µM.
For `O=C1C2=C(CCN(Cc3cccc(F)c3)C2)N2CCN=C2N1Cc1ccc(C(F)(F)F)cc1` [Compound 18], the IC50 in data set [1] (setting [5]) came to 0.078 µM. Also, in data set [3], the “Oral Bioavailability (% F)” value is listed as 27 % F and the area under the curve AUC(0-inf) came out at 823 ng·h/mL. The IC50 in data set [2] (setting [6]) worked out at 0.022 µM.
With `N#Cc1cccc(CN2CCC3=C(C2)C(=O)N(Cc2ccc(Cl)cc2)C2=NCCN23)c1` [Compound 14], the figures for the half-maximal inhibitory concentration (IC50) in data set [1] (setting [5]) and in data set [2] (setting [6]) were 0.024 µM and 0.011 µM, respectively.
Taken in the same sequence, the figures for `N#Cc1cccc(CN2CCC3=C(C2)C(=O)N(Cc2ccc(C(F)(F)F)cc2)C2=NCCN23)c1` [Compound 15] were 0.024 µM and 0.007 µM.
As for `C#Cc1cccc(CN2CCC3=C(C2)C(=O)N(Cc2ccc(Cl)cc2)C2=NCCN23)c1` [Compound 4], the IC50 in data set [1] (setting [5]) worked out at 0.069 µM; in data set [2] (setting [6]) it was 0.082 µM. The “Oral Bioavailability (% F)” value in data set [3] was 33 % F. In data set [3], the AUC(0-inf) was determined as 255 ng·h/mL.

The values are drawn from patent US11091483B2, “Protein kinase regulators” (Nanjing Gator Meditech Company, Ltd., priority 2016, dated 2021).
